Test results reported in patent US6737383B1, “Herbicidal oxadiazolidines” (priority 1999, dated 2004).

Legend:
purple nutsedge = test: Test B pre/postemergence purple nutsedge; assay type: in vivo, Cyperus rotundus
Procedure, shortened: (§1)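 Test chemicals in a non-phytotoxic solvent mixture with surfactant were sprayed preemergence onto planted seeds and postemergence onto plants 2 to 18 cm tall (1- to 4-leaf stage). After twelve to sixteen days in a greenhouse, injury was visually rated against untreated controls from 0 (no effect) to 10 (complete control).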

cocklebur = test: Test B pre/postemergence cocklebur; assay type: in vivo, Xanthium strumarium
Procedure, shortened: as §1

rice = test: Test B flood test rice; assay type: in vivo, Oryza sativa
Procedure, shortened: (§2)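 Plants were grown to the 2-leaf stage before treatment with test chemical, then held in a greenhouse for twelve to sixteen days. Injury was visually rated against untreated controls on a 0–10 scale, where 0 is no effect and 10 is complete control.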

velvetleaf = test: Test B pre/postemergence velvetleaf; assay type: in vivo, Abutilon theophrasti
Procedure, shortened: as §1

smallflower flatsedge = test: Test B flood test smallflower flatsedge; assay type: in vivo, Cyperus difformis
Procedure, shortened: as §2

surinam grass = test: Test B pre/postemergence surinam grass; assay type: in vivo, Brachiaria decumbens
Procedure, shortened: as §1

rape = test: Test B pre/postemergence rape; assay type: in vivo, Brassica napus
Procedure, shortened: as §1

corn = test: Test B pre/postemergence corn; assay type: in vivo, Zea mays
Procedure, shortened: as §1

wheat = test: Test B pre/postemergence wheat; assay type: in vivo, Triticum aestivum
Procedure, shortened: as §1

wild oat = test: Test B pre/postemergence wild oat; assay type: in vivo, Avena fatua
Procedure, shortened: as §1

bamyardgrass = test: Test B flood test barnyardgrass; assay type: in vivo, Echinochloa crus-galli
Procedure, shortened: as §2

morningglory = test: Test B pre/postemergence morningglory; assay type: in vivo, Ipomoea hederacea
Procedure, shortened: as §1

blackgrass = test: Test B pre/postemergence blackgrass; assay type: in vivo, Alopecurus myosuroides
Procedure, shortened: as §1

duck salad = test: Test B flood test duck salad; assay type: in vivo, Heteranthera limosa
Procedure, shortened: as §2

bedstraw = test: Test B pre/postemergence bedstraw; assay type: in vivo, Galium aparine
Procedure, shortened: as §1

pigweed = test: Test B pre/postemergence pigweed; assay type: in vivo, Amaranthus retroflexus
Procedure, shortened: as §1

[1] = Preemergence, Rate 250 g/ha, scale of 0 to 10 where 0 is no effect and 10 is complete control
[2] = Rate 62 g/ha, Postemergence, scale of 0 to 10 where 0 is no effect and 10 is complete control
[3] = Rate 125 g/ha, Postemergence, scale 0 to 10
[4] = Rate 125 g/ha, Preemergence, scale of 0 to 10 where 0 is no effect and 10 is complete control
[5] = Preemergence, Rate 62 g/ha, scale of 0 to 10 where 0 is no effect and 10 is complete control
[6] = Rate 500 g/ha, Postemergence, scale 0 to 10, 0 no effect, 10 complete control
[7] = Rate 62 g/ha, headed Pre-emergence (flood test species), scale 0 to 10 (0 no effect, 10 complete control)
[8] = Rate 125 g/ha, Pre-emergence, flood test species, scale 0 to 10 where 0 is no effect and 10 is complete control
[9] = Rate 250 g/ha, Pre-emergence, flood-test species, scale 0 to 10, 0 is no effect, 10 is complete control
[10] = Rate 500 g/ha, Pre-emergence, flood test species, scale 0 to 10 (0 no effect, 10 complete control)
[11] = Preemergence, Rate 500 g/ha, scale of 0 to 10 where 0 is no effect and 10 is complete control

With `COc1cc(C)cc(C)c1-n1c(=O)on(C(=O)N(c2ccc(F)cc2)C(C)C)c1=O` [Compound 222] the “Nutsedge plant response rating” value (purple nutsedge; [1]) was 0, the “Nutsedge plant response rating” value (purple nutsedge; [2]) was 0 and the “Nutsedge plant response rating” value (purple nutsedge; [3]) was 0. The “Nutsedge plant response rating” value (purple nutsedge; [4]) was 0, the “Plant response rating (0 to 10; 0 is no effect, 10 is complete control), Nutsedge” value (purple nutsedge; Rate 250 g/ha, Postemergence) was 0 and the “Cocklebur plant response rating” value (cocklebur; [5]) was 0. For the same compound, the “Cocklebur plant response rating” value (cocklebur; [1]) was 0, the “Cocklebur plant response rating” value (cocklebur; [2]) was 0 and the “Cocklebur plant response rating” value (cocklebur; [3]) was 0. The “Cocklebur plant response rating” value (cocklebur; [4]) was 0, the “Plant response rating (0 to 10; 0 is no effect, 10 is complete control), Cocklebur” value (cocklebur; Rate 250 g/ha, Postemergence) was 0 and the “Cocklebur plant response rating” value (cocklebur; [6]) was 0. For the same compound, the “Rice plant response rating” value (rice; [7]) was 0, the “Rice plant response rating” value (rice; [8]) was 0 and the “Rice plant response rating” value (rice; [9]) was 0. For the same compound, the “Rice plant response rating” value (rice; [10]) was 0, the “Velvetleaf plant response rating” value (velvetleaf; [5]) was 0 and the “Velvetleaf plant response rating” value (velvetleaf; [1]) was 0. For the same compound, the “Plant response rating, Velvetleaf” value (velvetleaf; [11]) was 3, the “Velvetleaf plant response rating” value (velvetleaf; [2]) was 0 and the “Velvetleaf plant response rating” value (velvetleaf; [3]) was 0. For the same compound, the “Velvetleaf plant response rating” value (velvetleaf; [4]) was 0, the “Plant response rating (0 to 10; 0 is no effect, 10 is complete control), Velvetleaf” value (velvetleaf; Rate 250 g/ha, Postemergence) was 2 and the “Velvetleaf plant response rating” value (velvetleaf; [6]) was 3. The “S. Flatsedge plant response rating” value (smallflower flatsedge; [7]) was 0, the “S. Flatsedge plant response rating” value (smallflower flatsedge; [8]) was 0 and the “S. Flatsedge plant response rating” value (smallflower flatsedge; [9]) was 0. The “S. Flatsedge plant response rating” value (smallflower flatsedge; [10]) was 0, the “B. signalgrass plant response rating” value (surinam grass; [5]) was 0 and the “B. signalgrass plant response rating” value (surinam grass; Preemergence, Rate 250 g/ha, scale 0 to 10, 0 is no effect, 10 is complete control) was 0. For the same compound, the “Plant response rating, B. signalgrass” value (surinam grass; [11]) was 0, the “B. signalgrass plant response rating” value (surinam grass; [2]) was 0 and the “B. signalgrass plant response rating” value (surinam grass; Rate 125 g/ha, Postemergence, scale 0 (no effect) to 10 (complete control)) was 0. For the same compound, the “B. signalgrass plant response rating” value (surinam grass; [4]) was 0, the “Plant response rating (0 to 10; 0 is no effect, 10 is complete control), B. signalgrass” value (surinam grass; Rate 250 g/ha, Postemergence) was 0 and the “B. signalgrass plant response rating” value (surinam grass; [6]) was 1. For the same compound, the “Rape plant response rating” value (rape; [5]) was 0, the “Rape plant response rating” value (rape; [1]) was 0 and the “Plant response rating, Rape” value (rape; [11]) was 0. The “Rape plant response rating” value (rape; [2]) was 0, the “Rape plant response rating” value (rape; [3]) was 0 and the “Rape plant response rating” value (rape; [4]) was 0. The “Plant response rating (0 to 10; 0 is no effect, 10 is complete control), Rape” value (rape; Rate 250 g/ha, Postemergence) was 0, the “Rape plant response rating” value (rape; [6]) was 0 and the “Corn plant response rating” value (corn; [5]) was 0. The “Corn plant response rating” value (corn; [1]) was 0, the “Plant response rating, Corn” value (corn; [11]) was 0 and the “Corn plant response rating” value (corn; [2]) was 0. The “Corn plant response rating” value (corn; [3]) was 0, the “Corn plant response rating” value (corn; [4]) was 0 and the “Plant response rating (0 to 10; 0 is no effect, 10 is complete control), Corn” value (corn; Rate 250 g/ha, Postemergence) was 0. The “Corn plant response rating” value (corn; [6]) was 0, the “Wheat plant response rating” value (wheat; [5]) was 0 and the “Wheat plant response rating” value (wheat; [1]) was 0. The “Plant response rating, Wheat” value (wheat; [11]) was 0, the “Wheat plant response rating” value (wheat; [2]) was 0 and the “Wheat plant response rating” value (wheat; [3]) was 0. For the same compound, the “Wheat plant response rating” value (wheat; [4]) was 0, the “Plant response rating (0 to 10; 0 is no effect, 10 is complete control), Wheat” value (wheat; Rate 250 g/ha, Postemergence) was 0 and the “Wheat plant response rating” value (wheat; [6]) was 0. The “Wild oats plant response rating” value (wild oat; [5]) was 0, the “Wild oats plant response rating” value (wild oat; [1]) was 0 and the “Plant response rating, Wild oats” value (wild oat; [11]) was 1. The “Wild oats plant response rating” value (wild oat; [2]) was 0, the “Wild oats plant response rating” value (wild oat; [3]) was 0 and the “Wild oats plant response rating” value (wild oat; [4]) was 0. For the same compound, the “Plant response rating (0 to 10; 0 is no effect, 10 is complete control), Wild oats” value (wild oat; Rate 250 g/ha, Postemergence) was 0, the “Wild oats plant response rating” value (wild oat; [6]) was 0 and the “Barnyardgrass plant response rating” value (bamyardgrass; [7]) was 0. The “Barnyardgrass plant response rating” value (bamyardgrass; [8]) was 0, the “Barnyardgrass plant response rating” value (bamyardgrass; [9]) was 0 and the “Barnyardgrass plant response rating” value (bamyardgrass; [10]) was 0. For the same compound, the “Morningglory plant response rating” value (morningglory; [5]) was 0, the “Morningglory plant response rating” value (morningglory; [1]) was 0 and the “Plant response rating, Morningglory” value (morningglory; [11]) was 0. For the same compound, the “Morningglory plant response rating” value (morningglory; [2]) was 1, the “Morningglory plant response rating” value (morningglory; [3]) was 1 and the “Morningglory plant response rating” value (morningglory; [4]) was 0. For the same compound, the “Plant response rating (0 to 10; 0 is no effect, 10 is complete control), Morningglory” value (morningglory; Rate 250 g/ha, Postemergence) was 3, the “Morningglory plant response rating” value (morningglory; [6]) was 3 and the “Blackgrass plant response rating” value (blackgrass; [5]) was 0. For the same compound, the “Blackgrass plant response rating” value (blackgrass; [1]) was 0, the “Plant response rating, Blackgrass” value (blackgrass; [11]) was 0 and the “Blackgrass plant response rating” value (blackgrass; [2]) was 0. The “Blackgrass plant response rating” value (blackgrass; [3]) was 0, the “Blackgrass plant response rating” value (blackgrass; [4]) was 0 and the “Plant response rating (0 to 10; 0 is no effect, 10 is complete control), Blackgrass” value (blackgrass; Rate 250 g/ha, Postemergence) was 3. The “Blackgrass plant response rating” value (blackgrass; [6]) was 4, the “Ducksalad plant response rating” value (duck salad; [7]) was 0 and the “Ducksalad plant response rating” value (duck salad; [8]) was 0. The “Ducksalad plant response rating” value (duck salad; [9]) was 0, the “Ducksalad plant response rating” value (duck salad; [10]) was 0 and the “Bedstraw plant response rating” value (bedstraw; [5]) was 0. For the same compound, the “Bedstraw plant response rating” value (bedstraw; [1]) was 0, the “Plant response rating, Bedstraw” value (bedstraw; [11]) was 0 and the “Bedstraw plant response rating” value (bedstraw; [2]) was 3. The “Bedstraw plant response rating” value (bedstraw; [3]) was 3, the “Bedstraw plant response rating” value (bedstraw; [4]) was 0 and the “Plant response rating (0 to 10; 0 is no effect, 10 is complete control), Bedstraw” value (bedstraw; Rate 250 g/ha, Postemergence) was 4. The “Bedstraw plant response rating” value (bedstraw; [6]) was 5, the “Redroot pigweed plant response rating” value (pigweed; [5]) was 0 and the “Redroot pigweed plant response rating” value (pigweed; [1]) was 0. The “Plant response rating, Redroot pigweed” value (pigweed; [11]) was 4, the “Redroot pigweed plant response rating” value (pigweed; [2]) was 0 and the “Redroot pigweed plant response rating” value (pigweed; [3]) was 0. The “Redroot pigweed plant response rating” value (pigweed; [4]) was 0, the “Plant response rating (0 to 10; 0 is no effect, 10 is complete control), Redroot pigweed” value (pigweed; Rate 250 g/ha, Postemergence) was 0 and the “Redroot pigweed plant response rating” value (pigweed; [6]) was 0.
